Like-named read-outs stand apart in the source and are kept apart here.
System: HBV rcDNA
Experiment: HepDE19 assay with bDNA quantitation of HBV rcDNA
Assay type: cell-based, hepatitis B virus
Method in brief: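 HepDE19 cells (HepG2-derived, Tet-regulated HBV replication) were deprived of tetracycline and then exposed to compounds for 7 days at 37 °C in 0.5% DMSO, 8-point titration from 25 μM. rcDNA was quantified by bDNA and EC50/EC90 came from 4-parameter fits. CC50 was measured by CellTiter-Glo ATP content on replicate plates after 4 days.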

[1] = Hepatitis B virus, HepDE19, read-out: DE-19bDNA EC50 (μM), HepDE19 assay, inhibition of formation of relaxed circular DNA (rcDNA), bDNA quantitation
[2] = Hepatitis B virus, HepDE19, HepDE19 assay, inhibition of formation of rcDNA, read-out: DE-19bDNA EC50
[3] = HepDE19 assay, inhibition of formation of relaxed circular DNA (rcDNA), bDNA quantitation, read-out: DE-19bDNA EC50
[4] = HepDE19 assay, inhibition of formation of rcDNA, read-out: DE-19bDNA EC50

For `CC(c1c[nH]c(=O)c2cc(F)c(F)cc12)N(C)C(=O)NCc1ccc(F)cc1` (single isomer, unassigned) [Compound 478, 1-(1-(6,7-Difluoro-1-oxo-1,2-dihydroisoquinolin-4-yl)ethyl)-3-(4-fluorobenzyl)-1-methylurea], which EC50 (Hepatitis B virus, HepDE19, HepDE19 assay, inhibition of formation of relaxed circular DNA (rcDNA), bDNA quantitation, read-out: DE-19bDNA EC50) is on record?
The EC50 was 1 µM.

Which EC50 [1] does the source give for `CC(NC(=O)Nc1ccc(F)c(Cl)c1)c1c[nH]c(=O)c2cc(F)c(F)cc12` (centres unmarked) [Compound 480, 1-(3-Chloro-4-fluorophenyl)-3-(1-(6,7-difluoro-1-oxo-1,2-dihydroisoquinolin-4-yl)ethyl)urea] here?
Its EC50 is 0.85 µM.

How did the EC50 [2] turn out when `Cc1cc(NC(=O)N(C)Cc2c[nH]c(=O)c3ccccc23)ccc1F` [Compound 5, 3-(4-Fluoro-3-methylphenyl)-1-methyl-1-((1-oxo-1,2-dihydroisoquinolin-4-yl)methyl)urea] was run?
Its EC50 is 0.49 µM.

`CC(c1c[nH]c(=O)c2cc(F)c(F)cc12)N(C)C(=O)Nc1ccc(F)c(Cl)c1` (single isomer, unassigned) [Compound 279, 3-(3-Chloro-4-fluorophenyl)-1-(1-(6,7-difluoro-1-oxo-1,2-dihydroisoquinolin-4-yl)ethyl)-1-methylurea] was tested. Which EC50 (read-out: DE-19bDNA EC50, HepDE19 assay, inhibition of formation of rcDNA) did it give?
The EC50 was 0.007 µM.

`CCN(C(=O)Nc1ccc(F)c(Cl)c1)C(C)c1c[nH]c(=O)c2cc(F)c(F)cc12` (single isomer, unassigned) [Compound 406, 3-(3-Chloro-4-fluorophenyl)-1-(1-(6,7-difluoro-1-oxo-1,2-dihydroisoquinolin-4-yl)ethyl)-1-ethylurea] was tested. Which EC50 [3] did it give?
The EC50 was 2.1 µM.

Which EC50 [3] does the source give for `CC(c1c[nH]c(=O)c2cc(F)c(F)cc12)N(CCCO)C(=O)Nc1ccc(F)c(Cl)c1` (single isomer, unassigned) [Compound 289, 3-(3-Chloro-4-fluorophenyl)-1-(1-(6,7-difluoro-1-oxo-1,2-dihydroisoquinolin-4-yl)ethyl)-1-(3-hydroxypropyl)urea] here?
The EC50 was 0.37 µM.

Which EC50 [3] does the source give for `CC(c1c[nH]c(=O)c2ccc(F)cc12)N(CC1COC(C)(C)OC1)C(=O)Nc1ccc(F)c(Cl)c1` (single isomer, unassigned) [Compound 283, 3-(3-Chloro-4-fluorophenyl)-1-((2,2-dimethyl-1,3-dioxan-5-yl)methyl)-1-(1-(6-fluoro-1-oxo-1,2-dihydroisoquinolin-4-yl)ethyl)urea] here?
Its EC50 is 0.043 µM.

`CC(c1c[nH]c(=O)c2ccccc12)N(CCC(=O)O)C(=O)Nc1ccc(F)c(Cl)c1` (single isomer, unassigned) [Compound 208, 3-(3-(3-Chloro-4-fluorophenyl)-1-(1-(1-oxo-1,2-dihydroisoquinolin-4-yl)ethyl)ureido)propanoic acid] was tested. Which EC50 [2] did it give?
The EC50 was 3.3 µM.

Which EC50 [3] does the source give for `CCN(C(=O)Nc1ccc(F)cc1)C(C)c1c[nH]c(=O)c2cc(F)c(F)cc12` (single isomer, unassigned) [Compound 402, 1-(1-(6,7-Difluoro-1-oxo-1,2-dihydroisoquinolin-4-yl)ethyl)-1-ethyl-3-(4-fluorophenyl)urea] here?
The EC50 was 10 µM.

For `CC(c1c[nH]c(=O)c2c(F)c(F)ccc12)N(C)C(=O)NCc1ccccc1` (single isomer, unassigned) [Compound 453, 3-Benzyl-1-(1-(7,8-difluoro-1-oxo-1,2-dihydroisoquinolin-4-yl)ethyl)-1-methylurea], which EC50 [1] is on record?
Its EC50 is 0.29 µM.

With `CC(c1c[nH]c(=O)c2ccccc12)N(Cc1c[nH]nn1)C(=O)Nc1ccc(F)c(Cl)c1` (single isomer, unassigned) [Compound 267, 1-((2H-1,2,3-Triazol-4-yl)methyl)-3-(3-chloro-4-fluorophenyl)-1-(1-(1-oxo-1,2-dihydroisoquinolin-4-yl)ethyl)urea] as the molecule, how does the EC50 [4] read?
Its EC50 is 0.35 µM.

Which EC50 [3] does the source give for `CC(c1cnc(C#N)c2ccccc12)N(C)C(=O)Nc1ccc(F)c(Cl)c1` (single isomer, unassigned) [Compound 336, 3-(3-Chloro-4-fluorophenyl)-1-(1-(1-cyanoisoquinolin-4-yl)ethyl)-1-methylurea] here?
The EC50 was 19 µM.

`CCCN(C(=O)Nc1ccc(F)c(Cl)c1)[C@H](C)c1c[nH]c(=O)c2ccccc12` [Compound 35, (R)-3-(3-Chloro-4-fluorophenyl)-1-(1-(1-oxo-1,2-dihydroisoquinolin-4-yl)ethyl)-1-propylurea] was tested. Which EC50 [2] did it give?
The EC50 was 0.01 µM.

For `CC(c1cnc(N(C)C)c2ccccc12)N(C)C(=O)Nc1ccc(F)c(Cl)c1` (single isomer, unassigned) [Compound 233, 3-(3-Chloro-4-fluorophenyl)-1-(1-(1-(dimethylamino)isoquinolin-4-yl)ethyl)-1-methylurea], which EC50 [4] is on record?
Its EC50 is 14 µM.

How did the EC50 [2] turn out when `COc1ncc(CNC(=O)Nc2ccc(F)c(Cl)c2)c2ccccc12` [Compound 6, 1-(3-Chloro-4-fluorophenyl)-3-((1-methoxyisoquinolin-4-yl)methyl)urea] was run?
The EC50 was 9 µM.

With `CC(c1c[nH]c(=O)c2cc(F)c(F)cc12)N(C)C(=O)Nc1cc(F)c(F)c(F)c1` (single isomer, unassigned) [Compound 414, 1-(1-(6,7-Difluoro-1-oxo-1,2-dihydroisoquinolin-4-yl)ethyl)-3-(3,4,5-trifluorophenyl)-1-methylurea] as the molecule, how does the EC50 [3] read?
Its EC50 is 4.8 µM.

How did the EC50 [2] turn out when `COc1cccc2c(=O)[nH]cc(C(C)N(C)C(=O)Nc3ccc(F)c(Cl)c3)c12` (single isomer, unassigned) [Compound 265, 3-(3-chloro-4-fluorophenyl)-1-(1-(5-methoxy-1-oxo-1,2-dihydroisoquinolin-4-yl)ethyl)-1-methylurea] was run?
The EC50 was 1.5 µM.

`CC(c1cnc(N(C)C)c2ccccc12)N(C)C(=O)Nc1ccc(F)c(Cl)c1` (single isomer, unassigned) [Compound 234, 3-(3-Chloro-4-fluorophenyl)-1-(1-(1-(dimethylamino)isoquinolin-4-yl)ethyl)-1-methylurea] was tested. Which EC50 [4] did it give?
Its EC50 is 0.65 µM.

`CC(c1c[nH]c(=O)c2ccccc12)N(CC1CCN(C)CC1)C(=O)Nc1ccc(F)c(Cl)c1` (single isomer, unassigned) [Compound 207, 3-(3-Chloro-4-fluorophenyl)-1-((1-methylpiperidin-4-yl)methyl)-1-(1-(1-oxo-1,2-dihydroisoquinolin-4-yl)ethyl)urea] was tested. Which EC50 [2] did it give?
The EC50 was 9 µM.

Which EC50 [3] does the source give for `CC(c1c[nH]c(=O)c2cc(F)c(F)cc12)N(C)C(=O)Nc1ccc(F)c(C(F)F)c1` (single isomer, unassigned) [Compound 501, 1-(1-(6,7-Difluoro-1-oxo-1,2-dihydroisoquinolin-4-yl)ethyl)-3-(3-(difluoromethyl)-4-fluorophenyl)-1-methylurea] here?
Its EC50 is 0.73 µM.

`CC(c1cn(CCO)c(=O)c2ccccc12)N(C)C(=O)Nc1ccc(F)c(Cl)c1` (single isomer, unassigned) [Compound 205, 3-(3-Chloro-4-fluorophenyl)-1-(1-(2-(2-hydroxyethyl)-1-oxo-1,2-dihydroisoquinolin-4-yl)ethyl)-1-methylurea] was tested. Which EC50 [2] did it give?
Its EC50 is 0.16 µM.

How did the EC50 [3] turn out when `CC(c1c[nH]c(=O)c2cc(F)c(F)cc12)N(C)C(=O)Nc1ccc(F)c(F)c1` (single isomer, unassigned) [Compound 408, 1-(1-(6,7-Difluoro-1-oxo-1,2-dihydroisoquinolin-4-yl)ethyl)-3-(3,4-difluorophenyl)-1-methylurea] was run?
Its EC50 is 3.4 µM.

`CC(c1c[nH]c(=O)c2cc(F)c(F)cc12)N(C)C(=O)Nc1ccccc1` (single isomer, unassigned) [Compound 399, 1-(1-(6,7-Difluoro-1-oxo-1,2-dihydroisoquinolin-4-yl)ethyl)-1-methyl-3-phenylurea] was tested. Which EC50 (read-out: DE-19bDNA EC50, HepDE19 assay, inhibition of formation of relaxed circular DNA (rcDNA), bDNA quantitation) did it give?
The EC50 was 0.11 µM.

From patent US20230045421A1 (priority 2018, published 2023)
